Assay results as given in PubChem BioAssay AID1996.
≈ marks a conversion by molar mass, not a printed value. Non-standard residues stand in square brackets, D forms with d. Residues, ends and D or L forms follow the SMILES beside them. *: point of attachment. Tic = O=C(O)[C@@H]1Cc2ccccc2CN1; Boc = CC(C)(C)OC(=O)*

Conditions: buffer; pH 7.4; 200.0 µM

Structure (SMILES)	solubility kinetic
CC(C)C(=O)Nc1cc(S(=O)(=O)N2CCOCC2)ccc1N1CCCCC1	49 µg/mL (≈ 124 µM)
COc1ccc(CNC(=O)c2ccc3ccccc3n2)cc1	18.4 µg/mL (≈ 62.9 µM)
Cc1cccc(OCCCCN2CCNCC2)c1	21.3 µg/mL (≈ 85.8 µM)
O=C(/C=C/c1ccc(Cl)c(Cl)c1)N1CCOCC1	35.5 µg/mL (≈ 124 µM)
COCCn1c(=O)[nH]c2cc(C(=O)Nc3cccc(F)c3)ccc2c1=O	6.2 µg/mL (≈ 17.4 µM)
c1ccc(-c2ccccc2OCCCCn2ccnc2)cc1	31.3 µg/mL (≈ 107 µM)
COc1cc(C)c(CN2CCC(Cc3ccccc3)CC2)cc1C	26.4 µg/mL (≈ 81.6 µM)
COc1ccc(-c2ncncc2-c2ccc(Cl)cc2)c(O)c1	1.1 µg/mL (≈ 3.52 µM)
COc1ccc(C(=O)CCC(=O)Nc2cccc(Cl)c2)cc1	3.4 µg/mL (≈ 10.7 µM)
CN(Cc1ccccc1)C(=O)COc1ccc(Br)cc1Cl	12.6 µg/mL (≈ 34.2 µM)
Cc1ccsc1C(=O)N1CCN(C(=O)c2ccco2)CC1	> 45.7 µg/mL
Cc1cccc(NC(=O)NCc2ccc3c(c2)OCO3)c1	1.6 µg/mL (≈ 5.63 µM)
COc1ccc(-c2[nH]ncc2CNC(C)Cc2cccc(C)n2)cc1F (stereo not given)	> 53.2 µg/mL
O=C(Nc1cccc(F)c1)c1ccco1	26.7 µg/mL (≈ 130 µM)
COc1cccc(NC(=O)CN(C)C(=O)CC(C)c2ccccc2)c1 (stereo not given)	40 µg/mL (≈ 118 µM)
CCOc1ccc(N2C(=O)c3ccccc3NC2(C)CC)cc1 (stereo not given)	> 46.6 µg/mL
Cc1ccc(C(O)Cn2cc([N+](=O)[O-])nc2C)cc1 (stereo not given)	> 39.2 µg/mL
NC(CSCc1ccccc1Cl)C(=O)O (stereo not given)	> 36.9 µg/mL
Cc1ccc(CNC(=O)c2cc(=O)c3ccccc3o2)cc1	3 µg/mL (≈ 10.2 µM)
CN1CC(=O)Nc2ccccc2C1=O	> 28.5 µg/mL

Structure (SMILES)	solubility kinetic
COc1cc(OC)cc(C(=O)NC2CCCCCCC2)c1	8.6 µg/mL (≈ 29.5 µM)
CCN(CC)C(=S)Nc1ccc(OC(F)F)cc1	40.3 µg/mL (≈ 147 µM)
CC1CCCN(S(=O)(=O)c2cccc([N+](=O)[O-])c2)C1 (stereo not given)	13.3 µg/mL (≈ 46.8 µM)
COc1ccc(CN2CCC(C)CC2)cc1OCc1ccccc1	45.3 µg/mL (≈ 139 µM)
O=C1CN(C(=O)CNCc2ccc(Cl)cc2)c2ccccc2N1	39.7 µg/mL (≈ 120 µM)
COc1ccc(C)cc1S(=O)(=O)Nc1ccc2c(c1)OCCO2	4.1 µg/mL (≈ 12.2 µM)
COc1cc(C(=O)NCC2CCCCC2)cc(OC)c1OC	12.8 µg/mL (≈ 41.6 µM)
CN1CC(c2ccccc2)Oc2ccccc2C1=S (stereo not given)	5.6 µg/mL (≈ 20.8 µM)
CN(C)CCn1c(COc2ccccc2)nc2ccccc21.Cl.O	> 60.7 µg/mL
Cc1cc(C(=O)NCc2csc(-c3ccccc3)n2)no1	> 44.9 µg/mL
Cc1nccn1CC(=O)N/N=C/c1cc(Br)cs1	> 49.1 µg/mL
Cc1ccc(NC(=S)N(C)C)cc1C	29.4 µg/mL (≈ 141 µM)
O=C(CN1C(=O)NC2NC(=O)NC21)N/N=C/c1ccccc1F (stereo not given)	> 48 µg/mL
O=C(O)c1c(N2CCCCC2)ccc([N+](=O)[O-])c1N1CCCCC1	46.4 µg/mL (≈ 139 µM)
O=C(NCCc1ccncc1)Nc1ccc(Cl)c(Cl)c1	> 46.5 µg/mL
CC(=O)c1ccc(NC(=O)C[n+]2cccc(C)c2)cc1.[Cl-]	> 45.7 µg/mL
COCCCNC(=O)C(C)N1c2cccc3cccc(c23)S1(=O)=O (stereo not given)	50.2 µg/mL (≈ 144 µM)
COc1cc(NC(=O)Nc2cccc3cccnc23)cc(OC)c1OC	0.4 µg/mL (≈ 1.13 µM)
CCCCN1C(=O)NC(NC(=O)C2CC2)(C(F)(F)F)C1=O (stereo not given)	> 46.1 µg/mL
COc1cc(/C=N/NC(=O)CNC(=O)c2ccncc2)ccc1OC(C)=O	> 55.6 µg/mL

Structure (SMILES)	solubility kinetic
Cc1ccc(CNC(=S)Nc2cc(C)ccc2OC(F)F)cc1	4.7 µg/mL (≈ 14 µM)
FC(F)(F)c1cc(Nc2ccccc2)nc(-c2ccccn2)n1	2.9 µg/mL (≈ 9.17 µM)
CCOC(=O)N1CCc2c(sc3nc[nH]c(=O)c23)C1	38.9 µg/mL (≈ 139 µM)
CCN(CC(=O)NCc1cccs1)C(=O)c1cccc(S(=O)(=O)N2CC(C)OC(C)C2)c1 (stereo not given)	> 71.9 µg/mL
O=C(Nc1ccccc1Cl)Nc1ccccc1Cl	< 0.3 µg/mL
O=C(O)c1ccccc1C(=O)Nc1nc(-c2ccccc2)cs1	43.2 µg/mL (≈ 133 µM)
CCOC(=O)c1oc2nc(CC(C)C)c3c(c2c1N)CCCC3	1.4 µg/mL (≈ 4.42 µM)
COC(=O)C(C(=O)OC)c1ncccc1[N+](=O)[O-]	> 38.1 µg/mL
Cc1ccc(C(=O)CSc2nc(N)cc(=O)[nH]2)cc1C	12.8 µg/mL (≈ 44.2 µM)
O=C([O-])c1cc(-c2cccnc2)nc2ccccc12.[K+]	8.7 µg/mL
COc1ccccc1NC(=S)NC12CN3CN(CN(C3)C1)C2	43.3 µg/mL (≈ 136 µM)
Cc1ccc(OCCCC(=O)NC(C)c2ccccc2)c(C)c1 (stereo not given)	22.6 µg/mL (≈ 72.6 µM)
CC(C)(C)OC(=O)N1Cc2ccccc2C[C@H]1C(=O)N1CCC[C@H]1C(=O)O (Boc-[Tic]-Pro-OH)	49.9 µg/mL (≈ 133 µM)
O=C(Nc1nccs1)c1ccc(Br)cc1	2.2 µg/mL (≈ 7.77 µM)
N#Cc1c(N2CCN(c3ccc(F)cc3)CC2)nc(N)c2c(N)nc3c(c12)CC(=O)N3C1CC1	0.8 µg/mL (≈ 1.74 µM)
N#Cc1ccc(OCC(=O)NC2CCCCCC2)cc1	> 40.9 µg/mL
Cc1cccc(OCCCC(=O)Nc2nccs2)c1C	1.5 µg/mL (≈ 5.17 µM)
CC1CCCCN1S(=O)(=O)c1cccc2nonc12 (stereo not given)	39.6 µg/mL (≈ 141 µM)
CCOc1ccccc1N1C(=O)CC(=O)NC1=O	> 37.2 µg/mL
Cc1ccc(C)c(OCC(=O)O/N=C(\N)c2cccc([N+](=O)[O-])c2)c1	1.2 µg/mL (≈ 3.5 µM)
